Data from US20100035878A1, “INHIBITORS OF C-JUN N-TERMINAL KINASES FOR THE TREATMENT OF NEURODEGENERATIVE DISORDERS RELATING TO APOPTOSIS AND/OR INFLAMMATION” (EISAI R & D MANAGEMENT CO., LTD., priority 2005, published 2010).

The compounds below were run against JNK3 (Homo sapiens, UniProt P53779) (assay: JNK3 SPA assay (phosphorylation of GST-c-Jun)). Conditions: GST-c-Jun substrate, [γ-33P] ATP, 30 minutes at room temperature.
Format: biochemical
Procedure: JNK1, JNK2, JNK3-SPA Assay
• 1. Compound is dissolved in DMSO to a convenient concentration and this is diluted in 10% DMSO to a five times concentrate of the desired starting concentration (frequently 1:100). • 2. 10 μl of 500 mM EDTA is added to alternative wells of the Opti-plate row, which will receive kinase reaction plus DMSO. This creates the negative control. • 3. For the JNK2 and JNK3 assay, compounds are prepared in six 2-fold dilutions with water and each concentration is tested in duplicate. For the JNK1 assay compounds are prepared in four 5-fold dilutions with water which are tested in triplicate. Controls are treated identically. • 4. 20 μl per well of each compound concentration is transferred to an Opti-plate, in duplicate. • 5. 30 μl (JNK2/3 SPA) or 50 μl (JNK1 SPA) of substrate solution (25 mM HEPES pH 7.5, 10 mM magnesium acetate with 3.33 µM ATP (JNK2/3) or 2 µM ATP (JNK1), approximately 7.5 kBq [γ-^33P] ATP, GST-c-Jun, in water) is added to each well. • 6. 50 μl (JNK2/3 SPA) or 30 μl (JNK1 SPA) of kinase solution (JNK in 25 mM HEPES pH 7.5, 10 mM Mg Acetate) is added to each well.
• 7. The plate is incubated for 30 minutes at room temperature. • 8. 100 μl of bead/stop solution is added to each well (5 mg/ml glutathione-PVT-SPA beads, 40 mM ATP in PBS). • 9. Plates are sealed and incubated for 30 minutes at room temperature, centrifuged for 10 minutes at 2500 g and counted. • 10. The IC50 values are calculated as the concentration of the compound being tested at which the phosphorylation of c-Jun is decreased to 50% of the control value.

Sequence of JNK3 (P53779 whole entry): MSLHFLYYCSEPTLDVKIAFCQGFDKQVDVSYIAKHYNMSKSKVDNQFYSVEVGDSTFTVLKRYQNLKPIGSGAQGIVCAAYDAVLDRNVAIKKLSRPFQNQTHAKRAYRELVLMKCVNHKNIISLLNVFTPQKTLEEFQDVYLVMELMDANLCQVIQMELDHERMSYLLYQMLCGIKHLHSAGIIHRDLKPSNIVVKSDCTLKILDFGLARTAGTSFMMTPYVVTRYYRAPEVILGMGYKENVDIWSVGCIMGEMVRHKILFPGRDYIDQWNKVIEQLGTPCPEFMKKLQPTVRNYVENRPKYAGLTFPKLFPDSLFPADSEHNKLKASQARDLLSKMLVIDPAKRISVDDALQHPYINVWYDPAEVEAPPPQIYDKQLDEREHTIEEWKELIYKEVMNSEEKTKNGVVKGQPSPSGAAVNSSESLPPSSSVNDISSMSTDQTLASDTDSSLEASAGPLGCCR

IC50	Compound
< 500 nM	CCCCOc1cnc2[nH]cc(-c3cnn(C)c3)c2c1
< 1000 nM	COc1cnc2[nH]cc(-c3cn[nH]c3)c2c1
< 200 nM	O=C(O)c1ccccc1C(=O)Nc1cnc2[nH]cc(-c3cncs3)c2c1
< 500 nM	O=C(Nc1cnc2[nH]cc(-c3ccoc3)c2c1)c1ccc(F)cc1
< 500 nM	Cc1ccccc1Oc1cnc2[nH]cc(-c3cnn(C)c3)c2c1
< 500 nM	Cn1cc(-c2c[nH]c3ncc(OCc4ccccc4)cc23)cn1
< 1000 nM	Cc1cccc(Oc2cnc3[nH]cc(-c4cnn(C)c4)c3c2)c1
< 500 nM	C#CCOc1cnc2[nH]cc(-c3cnn(C)c3)c2c1
< 500 nM	CCOc1cnc2[nH]cc(-c3cnn(C)c3)c2c1
< 2000 nM	COCCOc1cnc2[nH]cc(-c3cnn(C)c3)c2c1
< 200 nM	Cn1cc(-c2c[nH]c3ncc(OC4CCCC4)cc23)cn1
< 500 nM	Cc1ccc(Oc2cnc3[nH]cc(-c4cnn(C)c4)c3c2)cc1
< 500 nM	Cn1cc(-c2c[nH]c3ncc(OCCc4ccccc4)cc23)cn1
< 500 nM	Nc1cnc2[nH]cc(-c3cn[nH]c3)c2c1
< 100 nM	CCCCSc1cnc2[nH]cc(-c3cnn(C)c3)c2c1
< 500 nM	[O-][S+](c1ccccc1)c1cnc2[nH]cc(-c3cn[nH]c3)c2c1 (centres unmarked)
< 1000 nM	CCCC[S+]([O-])c1cnc2[nH]cc(-c3cn[nH]c3)c2c1 (centres unmarked)
< 500 nM	Cn1cc(-c2c[nH]c3ncc(CN4CCc5ccccc54)cc23)cn1
< 500 nM	Cn1cc(-c2c[nH]c3ncc(Cn4ccc5ccccc54)cc23)cn1
< 200 nM	CC(C)CCCc1cnc2[nH]cc(-c3cnn(C)c3)c2c1
< 100 nM	CCCCCCCCc1cnc2[nH]cc(-c3cnn(C)c3)c2c1
< 200 nM	CCCCCc1cnc2[nH]cc(-c3cnn(C)c3)c2c1

IC50	Compound
< 1000 nM	Cn1cc(-c2c[nH]c3ncc(CCCCO)cc23)cn1
< 500 nM	Cn1cc(-c2c[nH]c3ncc(OCC4CCCCC4)cc23)cn1
< 200 nM	CC(C)Cc1cnc2[nH]cc(-c3csc(C(=O)N4CCCCC4)n3)c2c1
< 500 nM	CCCCCc1cnc2[nH]cc(-c3csc(C(=O)N(C)C)n3)c2c1
< 500 nM	CCCCCc1cnc2[nH]cc(-c3csc(C(=O)N4CCOCC4)n3)c2c1
< 200 nM	CN(C)C1CCC(Cc2cnc3[nH]cc(-c4cnn(C)c4)c3c2)CC1 (centres unmarked)
< 200 nM	CN1CCN(C2CCC(Cc3cnc4[nH]cc(-c5cnn(C)c5)c4c3)CC2)CC1 (centres unmarked)
< 500 nM	CC(C)Cc1cnc2[nH]cc(-c3cnn(CCN4CCOCC4)c3)c2c1
< 100 nM	Cn1cc(-c2c[nH]c3ncc(CC4CCCC4)cc23)cn1
< 200 nM	Cn1cc(-c2c[nH]c3ncc(CC4=CCCC4)cc23)cn1
< 200 nM	Cn1cc(-c2c[nH]c3ncc(CC4CCN(Cc5ccccc5)CC4)cc23)cn1
< 200 nM	Cn1cc(-c2c[nH]c3ncc(Cc4ccccc4)cc23)cn1
< 200 nM	c1ccc(Sc2cnc3[nH]cc(-c4cn[nH]c4)c3c2)cc1
< 1000 nM	CC(C)(C)OC(=O)Nc1cnc2[nH]cc(-c3cn[nH]c3)c2c1
< 500 nM	Cn1cc(-c2c[nH]c3ncc(Oc4ccccc4)cc23)cn1
< 2000 nM	CCOC(=O)COc1cnc2[nH]cc(-c3cnn(C)c3)c2c1
< 500 nM	CCCCCCOc1cnc2[nH]cc(-c3cnn(C)c3)c2c1
< 200 nM	CCCCCOc1cnc2[nH]cc(-c3cnn(C)c3)c2c1
< 500 nM	CCCOc1cnc2[nH]cc(-c3cnn(C)c3)c2c1
< 500 nM	C=CCOc1cnc2[nH]cc(-c3cnn(C)c3)c2c1
< 1000 nM	Cn1cc(-c2c[nH]c3ncc(Oc4ccc(F)cc4)cc23)cn1
< 2000 nM	Oc1cnc2[nH]cc(-c3cn[nH]c3)c2c1

IC50	Compound
< 500 nM	CN(C)c1ccc(Oc2cnc3[nH]cc(-c4cnn(C)c4)c3c2)cc1
< 100 nM	CC(C)Cc1cnc2[nH]cc(-c3csc(C(=O)N4CCN(C)CC4)n3)c2c1
< 200 nM	CN(C)c1cccc(Sc2cnc3[nH]cc(-c4cnn(C)c4)c3c2)c1
< 1000 nM	CCCCS(=O)(=O)c1cnc2[nH]cc(-c3cn[nH]c3)c2c1
< 100 nM	Cn1cc(-c2c[nH]c3ncc(CC4CCC(O)CC4)cc23)cn1 (centres unmarked)
< 200 nM	Cn1cc(-c2c[nH]c3ncc(CCC4CCCCC4)cc23)cn1
< 1000 nM	Cn1cc(-c2c[nH]c3ncc(CN4CCCCC4)cc23)cn1
< 100 nM	CCCCCCCc1cnc2[nH]cc(-c3cnn(C)c3)c2c1
< 100 nM	CCCc1cnc2[nH]cc(-c3cnn(C)c3)c2c1
< 500 nM	Cn1cc(-c2c[nH]c3ncc(CCC(C)(C)C)cc23)cn1
< 100 nM	CC(C)Cc1cnc2[nH]cc(-c3cnn(C)c3)c2c1
< 500 nM	Cn1cc(-c2c[nH]c3ncc(OCC4CC4)cc23)cn1
< 1000 nM	CC(C)Cc1cnc2[nH]cc(-c3csc(C4CCN(C)CC4)n3)c2c1
< 200 nM	CC(C)Cc1cnc2[nH]cc(-c3csc(C(=O)N4CCOCC4)n3)c2c1
< 200 nM	CCCCCc1cnc2[nH]cc(-c3csc(C(=O)N4CCCCC4)n3)c2c1
< 200 nM	CCCCCc1cnc2[nH]cc(-c3csc(C(=O)N4CCN(C)CC4)n3)c2c1
< 200 nM	Cn1cc(-c2c[nH]c3ncc(CC4CCC(N5CCOCC5)CC4)cc23)cn1 (centres unmarked)
< 200 nM	Cn1cc(-c2c[nH]c3ncc(CC4CCC(=O)CC4)cc23)cn1
< 100 nM	Cn1cc(-c2c[nH]c3ncc(CC4CCCCC4)cc23)cn1
< 100 nM	Cn1cc(-c2c[nH]c3ncc(CC4CCC4)cc23)cn1
< 200 nM	Cn1cc(-c2c[nH]c3ncc(CC4=CCCCC4)cc23)cn1
